Measured values published in EP0409227A2, “Pyrimidine nucleosides, their preparation and pharmaceutical preparations” (MATTHES, Eckart, Dr., priority 1989, dated 1991).
pIC50: −log10 of the molar value. Where two headings read alike, the source gives them in different places.

Tests used:
MT4 Zellen = assay: Cytotoxicity: inhibition of proliferation of MT4 cells; format: cell-based
Protocol: Unter dem Aspekt einer möglichen Anwendung der Verbindungen am Menschen wurden ihre antiproliferativen Wirkungen an menschlichen Zellkulturen wie früher beschrieben getestet (E. Matthes et al. Biochem.Biophys.Res.Commun. 153, 825 (1988)). Dabei zeigte sich, daß z.B. 2′,3′-Didesoxy-3-fluor-5-methylcytidin gegenüber der T-Zellinie MT4 eine CD₅₀ von 190 µM aufweist. In einem weiteren Test, in dem eine mögliche Wachstumshemmung koloniebildender Zellen des Knochenmarks der Maus (CFU-GM) untersucht wurde (E. Matthes et al. Biochem.Biophys.Res.Commun. 165, 488 (1989), erwies sich diese Verbindung ebenfalls als kaum proliferationshemmend (CD₅₀ > 500 µM). Die Wirkung weiterer Verbindungen auf die Proliferation von MT4-Zellen ist in Tabelle 3 zusammengefaßt. Tabelle 3

DNA-Polymerase-beta = target: T1, DNA-Polymerase-beta (Homo sapiens, UniProt P06746); assay: Effect of modified nucleoside triphosphates on cellular DNA polymerase beta; format: biochemical; conditions: read-out: ID₅₀ (µM) DNA-Polymerase- beta
T1 construct: Die Isolierung der Enzyme und deren Aktivitätsbestimmung erfolgte entsprechend der Methode von Matthes et al; from tissue
Source text: (§1) Um zu prüfen, inwieweit die beschriebene Wirkung auf die HBV-Polymerase selektiv ist, d.h., die zellulären DNA-Polymerasen von einer Hemmung durch die erfindungsgemäßen Nucleosidtriphosphate ausgenommen sind, wurden die zellulären DNA-Polymerasen-alpha und -beta in die Untersuchungen einbezogen. Die Isolierung der Enzyme und deren Aktivitätsbestimmung erfolgte entsprechend der Methode von Matthes et al. (Biomed.Biochim.Acta 44, K63-K73 (1985)). Die Ergebnisse der Tabelle 2 zeigen, daß die für die Replikation der zellulären DNA zuständige DNA-Polymerase alpha weitgehend unbeeinflußt bleibt. Eine 50 %ige Hemmung dieses Enzyms wird mit Ausnahme auch bei Hemmstoffkonzentrationen >100 µM noch nicht erreicht, so daß die DNA-Polymerase-alpha diesen Verbindungen gegenüber als nahezu resistent anzusehen ist. Für die DNA-Polymerase-beta, die als Reparaturenzym zellulärer DNA-Schäden angesehen wird, liegen die ID₅₀- Werte zwischen 1 und >200 µM. Damit besitzt die beschriebene Verbindung eine hohe Wirkungsspezifität. Tabelle 2

HBV-Polymerase = target: T2, HBV-Polymerase (Hepatitis B virus genotype D subtype ayw, UniProt P03156); assay: Inhibition of HBV polymerase activity by nucleoside triphosphate analogues (method of Kaplan et al.); format: biochemical; conditions: 50 % inhibition of HBV polymerase activity; 3 h incubation at 37 °C; read-out: ID₅₀
T2 construct: Es wurde zunächst die Hemmbarkeit der HBV-assoziierten Polymerase; host or cells: virus-associated endogenous polymerase
Source text: Das Hepatitis B Virus (HBV) besitzt eine zirkuläre, partiell doppelsträngige DNA, welche nach Infektion einer Leberzelle durch eine viruseigene Polymerase repliziert wird. Dieser Vorgang setzt jedoch die Synthese einer RNA durch eine zelluläre RNA-Polymerase voraus. Nur diese RNA-Matrize - im Zusammenhang mit der Replikation auch als Prägenom bezeichnet - kann von der HBV-Polymerase für die Synthese zunächst eines RNA-DNA Hybrids und dann der doppelsträngigen DNA benutzt werden. Damit verfügt die HBV-Polymerase über eine enzymatische Aktivität, die der einer reversen Transcriptase ähnelt (Will et al., J.Virology 61, 904 (1987)). Es wurde zunächst die Hemmbarkeit der HBV-assoziierten Polymerase durch die 5′-Triphosphate der erfindungsgemäßen Verbindungen untersucht. Dazu wurde die von Kaplan et al. (J.Virology 12, 995 (1973)) angegebene Methode zur Bestimmung der HBV-Polymerase benutzt, wobei die zu testenden Triphosphate den Ansätzen in verschiedenen Konzentrationen zugesetzt wurden. Die Hemmung der Enzymreaktion wurde nach 3-stündiger Inkubation bei 37 °C durch Vergleich mit einem Kontrollwert ermittelt und daraus die Konzentration der zugesetzten Analoga bestimmt, die zu einer 50 %igen Hemmung der HBV-Polymerase-Aktivität führt (ID₅₀). Tabelle 1 zeigt die Ergebnisse, wobei insbesondere 2′,3′-Didesoxy-3′-fluor-5-methylcytidin durch einen Wert ID₅₀ von 0,03 µM herausragt und damit zu den stärksten bisher bekannten Hemmstoffen der HBV-Polymerase zu rechnen ist. Tabelle 1

DNA-Polymerase-alpha = target: T3, DNA-Polymerase-alpha (Homo sapiens, UniProt P09884); assay: Effect of modified nucleoside triphosphates on cellular DNA polymerase alpha; format: biochemical; conditions: read-out: ID₅₀ (µM) DNA-Polymerase- alpha
T3 construct: Die Isolierung der Enzyme und deren Aktivitätsbestimmung erfolgte entsprechend der Methode von Matthes et al; from tissue
T3 sequence (P09884 1-1462): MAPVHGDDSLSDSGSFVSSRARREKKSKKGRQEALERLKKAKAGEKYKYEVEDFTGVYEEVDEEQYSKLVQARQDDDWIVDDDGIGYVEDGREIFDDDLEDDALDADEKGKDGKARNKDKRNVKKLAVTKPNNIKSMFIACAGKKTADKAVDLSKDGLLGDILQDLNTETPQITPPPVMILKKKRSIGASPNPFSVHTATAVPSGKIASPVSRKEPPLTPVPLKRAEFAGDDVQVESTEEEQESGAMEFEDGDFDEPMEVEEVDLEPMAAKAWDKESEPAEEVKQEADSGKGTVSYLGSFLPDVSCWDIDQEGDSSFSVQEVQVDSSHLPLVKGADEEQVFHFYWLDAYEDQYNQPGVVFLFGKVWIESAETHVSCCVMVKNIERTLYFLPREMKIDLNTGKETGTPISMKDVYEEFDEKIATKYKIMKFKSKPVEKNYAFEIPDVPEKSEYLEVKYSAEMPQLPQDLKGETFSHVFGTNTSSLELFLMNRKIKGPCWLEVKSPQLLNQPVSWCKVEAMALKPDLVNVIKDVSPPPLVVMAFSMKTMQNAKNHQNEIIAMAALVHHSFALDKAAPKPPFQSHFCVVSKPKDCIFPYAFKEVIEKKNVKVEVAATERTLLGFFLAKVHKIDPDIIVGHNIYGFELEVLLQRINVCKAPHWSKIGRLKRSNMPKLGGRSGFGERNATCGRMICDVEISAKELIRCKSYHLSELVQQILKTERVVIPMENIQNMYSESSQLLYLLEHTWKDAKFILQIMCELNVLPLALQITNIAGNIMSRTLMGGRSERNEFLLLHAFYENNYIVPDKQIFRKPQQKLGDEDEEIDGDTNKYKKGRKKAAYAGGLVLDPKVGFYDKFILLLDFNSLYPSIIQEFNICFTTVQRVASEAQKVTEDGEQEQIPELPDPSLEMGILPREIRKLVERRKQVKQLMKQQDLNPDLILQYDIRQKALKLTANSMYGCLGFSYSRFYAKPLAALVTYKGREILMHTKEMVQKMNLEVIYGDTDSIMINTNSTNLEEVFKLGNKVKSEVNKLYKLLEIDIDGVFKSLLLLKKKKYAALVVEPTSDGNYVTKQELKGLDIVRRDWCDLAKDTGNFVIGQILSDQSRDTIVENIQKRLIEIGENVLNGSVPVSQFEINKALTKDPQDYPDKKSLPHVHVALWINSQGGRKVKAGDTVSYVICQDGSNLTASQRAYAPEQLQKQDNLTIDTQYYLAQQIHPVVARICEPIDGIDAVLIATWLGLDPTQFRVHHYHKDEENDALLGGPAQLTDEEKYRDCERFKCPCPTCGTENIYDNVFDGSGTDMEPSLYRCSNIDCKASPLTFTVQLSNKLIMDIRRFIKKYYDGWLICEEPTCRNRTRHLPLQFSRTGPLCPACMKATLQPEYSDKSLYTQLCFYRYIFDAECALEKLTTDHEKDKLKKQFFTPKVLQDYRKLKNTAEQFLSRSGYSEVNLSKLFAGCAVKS
Source text: as §1

T2 sequence (P03156 whole entry): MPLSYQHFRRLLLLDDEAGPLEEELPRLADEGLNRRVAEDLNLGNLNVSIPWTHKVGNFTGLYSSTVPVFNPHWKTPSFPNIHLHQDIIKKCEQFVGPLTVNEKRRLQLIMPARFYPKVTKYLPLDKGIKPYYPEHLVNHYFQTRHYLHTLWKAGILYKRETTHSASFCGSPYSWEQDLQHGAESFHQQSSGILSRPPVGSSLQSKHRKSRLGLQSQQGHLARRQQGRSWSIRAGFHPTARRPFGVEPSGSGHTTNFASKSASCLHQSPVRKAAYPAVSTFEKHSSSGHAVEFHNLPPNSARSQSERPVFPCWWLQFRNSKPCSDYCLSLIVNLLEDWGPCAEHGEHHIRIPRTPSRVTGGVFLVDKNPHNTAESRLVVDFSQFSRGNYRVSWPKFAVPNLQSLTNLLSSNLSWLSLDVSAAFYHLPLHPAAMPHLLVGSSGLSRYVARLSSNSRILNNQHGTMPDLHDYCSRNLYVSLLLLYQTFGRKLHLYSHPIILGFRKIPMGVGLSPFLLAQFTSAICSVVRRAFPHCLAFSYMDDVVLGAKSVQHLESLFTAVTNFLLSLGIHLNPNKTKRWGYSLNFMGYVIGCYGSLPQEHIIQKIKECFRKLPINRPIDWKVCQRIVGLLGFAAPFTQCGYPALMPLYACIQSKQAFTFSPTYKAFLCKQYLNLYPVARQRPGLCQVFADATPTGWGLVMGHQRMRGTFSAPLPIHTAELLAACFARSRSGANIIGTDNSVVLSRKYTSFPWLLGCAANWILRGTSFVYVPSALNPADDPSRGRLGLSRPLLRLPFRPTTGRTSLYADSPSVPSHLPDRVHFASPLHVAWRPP

Row | IC50 (DNA-Polymerase-beta) | pIC50 (HBV-Polymerase) | IC50 (DNA-Polymerase-alpha) | Structure (SMILES) | CD₅₀ (MT4 Zellen; human, 48 h) | CD₅₀ (MT4 Zellen)
1 | – | – | – | Cc1cn([C@H]2C=C[C@@H](CO)O2)c(=O)nc1N [2′,3′-Didehydro-2′,3′-didesoxy-5-methylcytidin] | 205 µM | –
2 | – | – | – | Nc1nc2c(ncn2[C@H]2C=C[C@@H](CO)O2)c(=O)[nH]1 [2′,3′-Didehydro-2′,3′-didesoxyguanosin] | 155 µM | –
3 | – | – | – | Nc1nc2c(ncn2[C@H]2C[C@H](N)[C@@H](CO)O2)c(=O)[nH]1 [2′,3′-Didesoxy-3′-aminoguanosin] | 210 µM | –
4 | – | – | – | Cc1cn([C@H]2C[C@H](N=[N+]=[N-])[C@@H](CO)O2)c(=O)nc1N [2′,3′-Didesoxy-3′-azido-5-methylcytidin] | > 500 µM | –
5 | – | – | – | Nc1nc2c(ncn2[C@H]2C[C@H](F)[C@@H](CO)O2)c(=O)[nH]1 [2′,3′-Didesoxy-3′-fluorguanosin] | – | 250 µM
6 | – | – | – | Cc1cn([C@H]2CC[C@@H](CO)O2)c(=O)nc1N [2′,3′-Didesoxy-5-methylcytidin] | 110 µM | –
7 | 1.8 µM | 6.82 | > 200 µM | Nc1nc2c(ncn2[C@H]2C[C@H](F)[C@@H](COP(=O)(O)OP(=O)(O)OP(=O)(O)O)O2)c(=O)[nH]1 [FdGTP, 2′,3′-Didesoxy-3′-fluorguanosin-5′-triphosphat] | – | –
8 | > 200 µM | 4.59 | > 200 µM | Cc1cn([C@H]2C[C@H](N)[C@@H](COP(=O)(O)OP(=O)(O)OP(=O)(O)O)O2)c(=O)nc1N [NH₂MetdCTP, 2′,3′-Didesoxy-3′-amino-5-methylcytidin-5′-triphosphat] | – | –
9 | > 200 µM | 6.92 | > 200 µM | Cc1cn([C@H]2C[C@H](N=[N+]=[N-])[C@@H](COP(=O)(O)OP(=O)(O)OP(=O)(O)O)O2)c(=O)nc1N [N₃MetdCTP, 2′,3′-Didesoxy-3′-azido-5-methylcytidin-5′-triphosphat] | – | –
10 | > 100 µM | 5.10 | > 200 µM | Cc1cn([C@H]2CC[C@@H](COP(=O)(O)OP(=O)(O)OP(=O)(O)O)O2)c(=O)nc1N [ddMetCTP, 2′,3′-Didesoxy-5-methylcytidin-5′-triphosphat] | – | –
11 | 4.5 µM | 5.74 | > 100 µM | Nc1ncnc2c1ncn2[C@H]1C=C[C@@H](COP(=O)(O)OP(=O)(O)OP(=O)(O)O)O1 [ddeATP, 2′,3′-Didehydro-2′,3′-didesoxyadenosin-5′-triphosphat] | – | –
12 | 6 µM | 5.60 | > 200 µM | Nc1ccn([C@H]2C=C[C@@H](COP(=O)(O)OP(=O)(O)OP(=O)(O)O)O2)c(=O)n1 [ddeCTP, 2′,3′-Didehydro-2′,3′-didesoxycytidin-5′-triphosphat] | – | –
13 | 5 µM | 5.80 | > 150 µM | Nc1nc2c(ncn2[C@H]2C=C[C@@H](COP(=O)(O)OP(=O)(O)OP(=O)(O)O)O2)c(=O)[nH]1 [ddeGTP, 2′,3′-Didehydro-2′,3′-didesoxyguanosin-5′-triphosphat] | – | –
14 | 10 µM | 6.55 | > 200 µM | Cc1cn([C@H]2C=C[C@@H](COP(=O)(O)OP(=O)(O)OP(=O)(O)O)O2)c(=O)nc1N [ddeMetCTP, 2′,3′-Didehydro-2′,3′-didesoxy-5-methylcytidin-5′-triphosphat] | – | –

Row | Structure (SMILES) | IC50 (DNA-Polymerase-beta) | pIC50 (HBV-Polymerase) | IC50 (DNA-Polymerase-alpha) | CD₅₀ (MT4 Zellen; human, 48 h) | CD₅₀ (MT4 Zellen)
15 | Cc1cn([C@H]2C[C@H](Cl)[C@@H](COP(=O)(O)OP(=O)(O)OP(=O)(O)O)O2)c(=O)nc1N [ClMetdCTP, 2′,3′-Didesoxy-3′chlor-5-methylcytidin-5′-triphosphat] | 100 µM | 5.05 | > 200 µM | – | –
16 | CCc1cn([C@H]2C[C@H](F)[C@@H](COP(=O)(O)OP(=O)(O)OP(=O)(O)O)O2)c(=O)nc1N [FEtdCTP, 2′,3′-Didesoxy-3′-fluor-5-ethylcytidin-5′-triphosphat] | 3 µM | 6.46 | > 200 µM | – | –
17 | Cc1cn([C@H]2C[C@H](F)[C@@H](COP(=O)(O)OP(=O)(O)OP(=O)(O)O)O2)c(=O)nc1N [FMetdCTP, 2′,3′-Didesoxy-3′-fluor-5-methylcytidin-5′-triphosphat] | 1 µM | 7.52 | > 200 µM | – | –
